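Protocol summary: plate cells (96-well), add compound at 5 concentrations, incubate 48 h, interpolate endpoints linearly. The concentration for 50% growth inhibition is given as GI50. TGI: total growth inhibition.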
What was measured:
Assay in all cases: NCI anticancer screen, dose series, 48 h
786-0 renal = tested on: 786-0 renal
A498 renal = tested on: A498 renal
A549 NSCLC = tested on: A549 NSCLC
ACHN renal = tested on: ACHN renal
BT-549 breast = tested on: BT-549 breast
CAKI-1 renal = tested on: CAKI-1 renal
CCRF-CEM leukemia = tested on: CCRF-CEM leukemia
COLO 205 colon = tested on: COLO 205 colon
DU-145 prostate = tested on: DU-145 prostate
EKVX NSCLC = tested on: EKVX NSCLC
HCC-2998 colon = tested on: HCC-2998 colon
HCT-116 colon = tested on: HCT-116 colon
HCT-15 colon = tested on: HCT-15 colon
HL-60(TB) leukemia = tested on: HL-60(TB) leukemia
HOP-62 NSCLC = tested on: HOP-62 NSCLC
HOP-92 NSCLC = tested on: HOP-92 NSCLC
HS 578T breast = tested on: HS 578T breast
HT29 colon = tested on: HT29 colon
IGROV1 ovarian = tested on: IGROV1 ovarian
K-562 leukemia = tested on: K-562 leukemia
KM12 colon = tested on: KM12 colon
LOX IMVI melanoma = tested on: LOX IMVI melanoma
M14 melanoma = tested on: M14 melanoma
MALME-3M melanoma = tested on: MALME-3M melanoma
MCF7 breast = tested on: MCF7 breast
MDA-MB-231 breast = tested on: MDA-MB-231 breast
MDA-MB-435 = tested on: MDA-MB-435
MDA-N = tested on: MDA-N
MOLT-4 leukemia = tested on: MOLT-4 leukemia
NCI-H226 lung = tested on: NCI-H226 lung
NCI-H23 lung = tested on: NCI-H23 lung
NCI-H460 lung = tested on: NCI-H460 lung
NCI-H522 lung = tested on: NCI-H522 lung
NCI/ADR-RES ovarian = tested on: NCI/ADR-RES ovarian
OVCAR-3 ovarian = tested on: OVCAR-3 ovarian
OVCAR-4 ovarian = tested on: OVCAR-4 ovarian
OVCAR-5 ovarian = tested on: OVCAR-5 ovarian
OVCAR-8 ovarian = tested on: OVCAR-8 ovarian
PC-3 prostate = tested on: PC-3 prostate
RPMI-8226 leukemia = tested on: RPMI-8226 leukemia
RXF 393 renal = tested on: RXF 393 renal
SF-268 CNS = tested on: SF-268 CNS
SF-295 CNS = tested on: SF-295 CNS
SF-539 CNS = tested on: SF-539 CNS
SK-MEL-2 melanoma = tested on: SK-MEL-2 melanoma
SK-MEL-28 melanoma = tested on: SK-MEL-28 melanoma
SK-MEL-5 melanoma = tested on: SK-MEL-5 melanoma
SK-OV-3 ovarian = tested on: SK-OV-3 ovarian
SN12C renal = tested on: SN12C renal
SNB-19 CNS = tested on: SNB-19 CNS
SNB-75 CNS = tested on: SNB-75 CNS
SR leukemia = tested on: SR leukemia
SW-620 colon = tested on: SW-620 colon
T-47D breast = tested on: T-47D breast
TK-10 renal = tested on: TK-10 renal
U251 CNS = tested on: U251 CNS
UACC-257 melanoma = tested on: UACC-257 melanoma
UACC-62 melanoma = tested on: UACC-62 melanoma
UO-31 renal = tested on: UO-31 renal

**Q.** What does the source list for `Cc1ccc(-c2cc(C(F)(F)F)nn2-c2ccc(S(N)(=O)=O)cc2)cc1`?
**A.** TGI (786-0 renal): > 89.2 µM; TGI (A498 renal): 43.4 µM; TGI (A549 NSCLC): > 52.6 µM; TGI (ACHN renal): > 56 µM; TGI (BT-549 breast): 32.1 µM; TGI (CAKI-1 renal): > 60.1 µM; TGI (CCRF-CEM leukemia): 40.7 µM; TGI (COLO 205 colon): 50.8 µM; TGI (DU-145 prostate): > 57.7 µM; TGI (EKVX NSCLC): 54.4 µM; TGI (HCC-2998 colon): 33.1 µM; TGI (HCT-116 colon): > 58.2 µM; TGI (HCT-15 colon): > 56.6 µM; TGI (HL-60(TB) leukemia): 42.7 µM; TGI (HOP-62 NSCLC): > 100 µM; GI50 (HOP-92 NSCLC): 12 µM; TGI (HOP-92 NSCLC): 29.8 µM; TGI (HS 578T breast): 58.7 µM; TGI (HT29 colon): > 55.5 µM; TGI (IGROV1 ovarian): > 54.6 µM; TGI (K-562 leukemia): > 50.6 µM; TGI (KM12 colon): 35.9 µM; TGI (LOX IMVI melanoma): 31.7 µM; TGI (M14 melanoma): > 60 µM; TGI (MALME-3M melanoma): 46.6 µM; TGI (MCF7 breast): > 58.4 µM; TGI (MDA-MB-231 breast): > 54.2 µM; TGI (MDA-MB-435): > 56 µM; TGI (MDA-N): 30.9 µM; TGI (MOLT-4 leukemia): 53.2 µM; GI50 (NCI-H226 lung): 28.2 µM; TGI (NCI-H226 lung): > 100 µM; TGI (NCI-H23 lung): 37.7 µM; TGI (NCI-H460 lung): 37.4 µM; GI50 (NCI-H522 lung): 19.9 µM; TGI (NCI-H522 lung): 77.6 µM; TGI (NCI/ADR-RES ovarian): 43.1 µM; TGI (OVCAR-3 ovarian): 32 µM; TGI (OVCAR-4 ovarian): 46.4 µM; TGI (OVCAR-5 ovarian): > 59.8 µM; TGI (OVCAR-8 ovarian): > 62.8 µM; TGI (PC-3 prostate): 34.1 µM; TGI (RPMI-8226 leukemia): 29.9 µM; TGI (RXF 393 renal): 36 µM; TGI (SF-268 CNS): > 55.8 µM; TGI (SF-295 CNS): 55.4 µM; TGI (SF-539 CNS): > 59.4 µM; TGI (SK-MEL-2 melanoma): 43.5 µM; TGI (SK-MEL-28 melanoma): > 56.2 µM; TGI (SK-MEL-5 melanoma): 32.6 µM; TGI (SK-OV-3 ovarian): > 57 µM; TGI (SN12C renal): 42.1 µM; TGI (SNB-19 CNS): > 56.7 µM; TGI (SNB-75 CNS): > 53.8 µM; TGI (SR leukemia): 45.3 µM; TGI (SW-620 colon): > 56.3 µM; TGI (T-47D breast): > 61.8 µM; TGI (TK-10 renal): > 59.2 µM; TGI (U251 CNS): > 54.5 µM; TGI (UACC-257 melanoma): > 58.3 µM; TGI (UACC-62 melanoma): > 53.6 µM; TGI (UO-31 renal): > 53.2 µM
